As usually defined, the IC50 is the midpoint of a concentration-inhibition curve. Broadly, the melting point is the temperature, or range, at which the solid turns liquid.

This is an account of results in publication PMC7179198, “Chiral Pyridine-3,5-bis- (L-phenylalaninyl-L-leucinyl) Schiff Base Peptides as Potential Anticancer Agents: Design, Synthesis, and Molecular Docking Studies Targeting Lactate Dehydrogenase-A” (Molecules, 2020).

Data set [1] concerns breast cancer cells (MCF-7). The data set is described as follows: In vitro cytotoxic activity against MCF-7 cancer cells (MTT). Type of data set: cell-based, human. Conditions: for IC50: MCF-7, MTT. From the text:
(§1) Following the synthesis of the new bis-dipeptide derivatives, we evaluated the anticancer potentials of these derivatives in vitro against breast cancer cells (MCF-7) as well as normal non tumorigenic MCF-10A cells. The obtained results were expressed as IC50 values in µM and were also compared for both cell lines with positive reference controls; that is cisplatin and milaplatin. Generally, it can be seen that our newly synthesized bis-dipeptides have potential anticancer activities against MCF-7 cells.
Human breast cancer (MCF-7) cells, obtained from Sigma-Aldrich Chemie GmbH, Taufkirchen, Germany, were propagated in RPMI-1640 supplemented with 10% heat inactivated FBS, 2 mM L-glutamine, and 1% standard antibiotic solution. Cells were incubated in a 5% CO2humidified incubator at 37 °C and passaged bi-weekly. The in vitro anti-proliferative activity of the newly synthesized derivatives was assayed using the standard MTT technique.
(§2) The results were expressed as IC50. Experiments were repeated at least in triplicate, to obtain good reproducibility between replicate wells with standard errors below 10%. Furthermore, the cytotoxic effects of the prepared derivatives were evaluated against normal nonmalignant cells, non-tumorigenic MCF-10A, in order to find out if the synthesized derivatives have toxicity against normal cells. Additionally, the results were compared with reference compounds (cisplatin and milaplatin) as positive controls.

For data set [2], the target named is T1, recombinant human LDHA protein (Homo sapiens, UniProt P00338).
T1 construct: purchased Abcam ab93699
Kind of data set: LDHA inhibition assay (colorimetric NADH kit). The settings on record: recombinant human LDHA. The data set is classed as biochemical. On the procedure: The newly synthesized compounds 4–6 were evaluated for their ability to inhibit LDHA in comparison with galloflavin as a known isoform nonselective LDHA inhibitor [44, 45]. The choice of galloflavin as a reference was based on the fact that it is potent anticancer agent and commercially available.
Lactate dehydrogenase assay kit (Abcam, ab102526) and recombinant human LDHA protein (Abcam, ab93699) were used to assess the inhibitory effect of the tested compounds. First, we generated an NADH standard curve for colorimetric detection by measuring the OD (450 nm) at different molar amounts of NADH. The linear regression equation of the curve was derivatized in Graphpad Prism. Tested compounds were dissolved in DMSO and their inhibitory activity was assessed at 140 and 300 μM strength. Galloflavin (Sigma, SML0776) at the same molar concentration was used as a known LDH inhibitor. The master reaction mix composed of LDH assay buffer and 10 ng human LDHA […] per reaction was prepared. Tested compounds were added and the final reaction volume was adjusted to 50 μL. Absorbance at 450 nm was taken after 2–3 min (T-initial) and continued every minute for 118 min (T-final). The change in measurement over time (delta A450) was calculated as T-final minus T-initial. The amount of NADH generated by the assay between T-initial and T-final was deduced by comparing the A450 of each sample to the standard NADH standard curve. LDHA activity was calculated in milliunits per mL as the amount of NADH generated by the assay / (reaction time in minutes (118) x reaction volume in mL ([…]).

For data set [3], the system named is p53 ubiquitination. The data set is described as follows: In vivo p53 ubiquitination inhibition. Conditions: read-out: in vivo IC50, suppression of p53 ubiquitination. From the text: (§3) Several cancer prevention drugs depend mainly on the ubiquitination activities against p53 as a suppressor protein. When E3 ubiquitin protein ligase HDM2 binds to p53, the resulting mechanism is the inhibition of its ability as a transcription activator. Accordingly, the regulative mechanism is acting negatively. Therefore, blocking the p53 binding site on HDM2 provides for a better possible antitumorigenic molecule. Currently, murine double minute 2 (MDM2) is considered as the regulator of choice when it comes to investigatingp53 inhibition.
(§4) Different prepared derivatives 4–6 were evaluated for their inhibitory potential against p53 ubiquitination according to the previously reported procedure.

The subject of data set [4] is non-tumorigenic MCF-10A cells. Kind of data set: Cytotoxicity against normal non-tumorigenic MCF-10A cells (MTT). The data set is classed as cell-based. Conditions: MCF-10A vs MCF-7.
Description: as §1
The fact that normal cells are usually less affected by possible anticancer candidates may be attributed to the fact that, upon cancer initiation and development, cancer cells overcome normal growth regulation pathways present in normal cells, and thusthey tend to be affected by other different regulatory growth pathways, which are not evident in the case of normal cells.
as §2

In data set [5] the test system is p53 ubiquitination. The data set is described as follows: In vitro p53 ubiquitination inhibition. Type of data set: biochemical. The settings on record: read-out: in vitro IC50, suppression of p53 ubiquitination.
Description: as §3, §4

In data set [1], milaplatin [reference compound] gave an IC50 of 18.43 ± 0.13 µM. `CC(C)CC(NC(=O)C(Cc1ccccc1)NC(=O)c1cncc(C(=O)NC(Cc2ccccc2)C(=O)NC(CC(C)C)C(=O)NN=C2CCCCCC2)c1)C(=O)NN=C1CCCCCC1` (stereo not drawn) [3c, N^3,N^5-Bis{1-[(1-(2-cycloheptylidenehydrazinyl)-4-methyl-1-oxopentan-2-yl)amino]-1-oxo-3-phenylpropan-2-yl}pyridine-3,5-dicarboxamide] showed a melting point of 221 to 223 °C.

`CC(=NNC(=O)C(CC(C)C)NC(=O)C(Cc1ccccc1)NC(=O)c1cncc(C(=O)NC(Cc2ccccc2)C(=O)NC(CC(C)C)C(=O)NN=C(C)c2cccnc2)c1)c1cccnc1` (stereo not drawn) (hydrate or solvate) [4b, N^3,N^5-Bis{1-[(4-methyl-1-oxo-1-(2-(1-(pyridin-3-yl)ethylidene)hydrazinyl)pentan-2-yl)-amino]-1-oxo-3-phenylpropan-2-yl}pyridine-3,5-dicarboxamide] yielded a melting point of 208 to 210 °C. On to `O=c1oc2c(cc1O)oc(=O)c1cc(O)c(O)c(O)c12` [galloflavin, reference compound], for which the IC50 in data set [2] was 161.1 ± 0.32 µM. For `CC(C)CC(NC(=O)C(Cc1ccccc1)NC(=O)c1cncc(C(=O)NC(Cc2ccccc2)C(=O)NC(CC(C)C)C(=O)NN=Cc2cccs2)c1)C(=O)NN=Cc1cccs1` (stereo not drawn) [6b, N^3,N^5-bis{1-[(4-methyl-1-oxo-1-(2-(thiophen-2-ylmethylene)hydrazinyl)pentan-2-yl)amino]-1-oxo-3-phenylpropan-2-yl}pyridine-3,5-dicarboxamide], the melting point fell in the range of 218 to 220 °C. `CC(C)CC(NC(=O)C(Cc1ccccc1)NC(=O)c1cncc(C(=O)NC(Cc2ccccc2)C(=O)NC(CC(C)C)C(=O)NN=Cc2ccco2)c1)C(=O)NN=Cc1ccco1` (stereo not drawn) [6a, N^3,N^5-bis{1-[(1-(2-(furan-2-ylmethylene)hydrazinyl)-4-methyl-1-oxopentan-2-yl)amino]-1-oxo-3-phenylpropan-2-yl}pyridine-3,5-dicarboxamide] came in with a melting point of 205 to 207 °C. Moreover, in the data set with p53 ubiquitination [3], the IC50 came to 0.31 ± 0.001 µM. “N^3,N^5-Bis{1-[(1-(2-(1-(4-methoxyphenyl)ethylidene)hydrazinyl)-4-methyl-1-oxopentan-2-yl)-amino]-1-oxo-3-phenylpropan-2-yl}pyridine-3,5-dicarboxamide [5a]”: the “fold higher IC50 against MCF-10A than MCF-7” value in data set [4] is approximately 145.9 fold. The IC50 in the data set on p53 ubiquitination [5] stood at 44.33 ± 0.34 µM; in data set [1], 17.6 ± 0.27 µM. For `CC(C)CC(NC(=O)C(Cc1ccccc1)NC(=O)c1cncc(C(=O)NC(Cc2ccccc2)C(=O)NC(CC(C)C)C(=O)NN=C2CCCC2)c1)C(=O)NN=C1CCCC1` (stereo not drawn) [3a, N^3,N^5-Bis{1-[(1-(2-cyclopentylidenehydrazinyl)-4-methyl-1-oxopentan-2-yl]amino)-1-oxo-3-phenylpropan-2-yl}pyridine-3,5-dicarboxamide], the melting point is 232 to 234 °C. `CC(C)CC(NC(=O)C(Cc1ccccc1)NC(=O)c1cncc(C(=O)NC(Cc2ccccc2)C(=O)NC(CC(C)C)C(=O)NN=C2CCCCCCC2)c1)C(=O)NN=C1CCCCCCC1` (stereo not drawn) [3d, N^3,N^5-Bis{1-[(1-(2-cyclooctylidenehydrazinyl)-4-methyl-1-oxopentan-2-yl)amino]-1-oxo-3-phenylpropan-2-yl}pyridine-3,5-dicarboxamide] returned a melting point of 242 to 244 °C.

The compound `CC(=NNC(=O)C(CC(C)C)NC(=O)C(Cc1ccccc1)NC(=O)c1cncc(C(=O)NC(Cc2ccccc2)C(=O)NC(CC(C)C)C(=O)NN=C(C)c2ccccn2)c1)c1ccccn1` (stereo not drawn) (hydrate or solvate) [4a, N^3,N^5-Bis{1-[(4-methyl-1-oxo-1-(2-(1-(pyridin-2-yl)ethylidene)hydrazinyl)pentan-2-yl)amino]-1-oxo-3-phenylpropan-2-yl}pyridine-3,5-dicarboxamide] came in with a melting point of 216 to 218 °C. Turning to `CC(=NNC(=O)C(CC(C)C)NC(=O)C(Cc1ccccc1)NC(=O)c1cncc(C(=O)NC(Cc2ccccc2)C(=O)NC(CC(C)C)C(=O)NN=C(C)c2cccnc2)c1)c1cccnc1` (stereo not drawn) [4b, N^3,N^5-Bis{1-[(4-methyl-1-oxo-1-(2-(1-(pyridin-3-yl)ethylidene)hydrazinyl)pentan-2-yl)-amino]-1-oxo-3-phenylpropan-2-yl}pyridine-3,5-dicarboxamide], the “fold higher IC50 against MCF-10A than MCF-7” value in data set [4] is recorded as “about 142.7 fold”. In data set [1] (Homo sapiens, MCF7), this compound had an IC50 of 8.12 ± 0.14 µM. For the same compound, the “more active than cisplatin against MCF-7” value in data set [1] (MCF-7, vs cisplatin) is on record as “about 39.1%”. For the same compound, in data set [1] (MCF-7, vs milaplatin), the “more active than milaplatin against MCF-7” value is reported as approximately 55.9%. `CC(=NNC(=O)C(CC(C)C)NC(=O)C(Cc1ccccc1)NC(=O)c1cncc(C(=O)NC(Cc2ccccc2)C(=O)NC(CC(C)C)C(=O)NN=C(C)c2ccncc2)c1)c1ccncc1` (stereo not drawn) (hydrate or solvate) [4c, N^3,N^5-Bis{1-[(4-methyl-1-oxo-1-(2-(1-(pyridin-4-yl)ethylidene)hydrazinyl)pentan-2-yl)-amino]-1-oxo-3-phenylpropan-2-yl}pyridine-3,5-dicarboxamide] gave a melting point of 196 to 198 °C. In turn, `N.N.[Cl][Pt][Cl]` [cisplatin, reference compound] registered an IC50 in data set [1] of 13.34 ± 0.11 µM. With `CC(C)CC(NC(=O)C(Cc1ccccc1)NC(=O)c1cncc(C(=O)NC(Cc2ccccc2)C(=O)NC(CC(C)C)C(=O)NN=C2CCCCC2)c1)C(=O)NN=C1CCCCC1` (stereo not drawn) [3b, N^3,N^5-Bis{1-[(1-(2-cyclohexylidenehydrazinyl)-4-methyl-1-oxopentan-2-yl)amino]-1-oxo-3-phenylpropan-2-yl}pyridine-3,5-dicarboxamide], the melting point fell in the range of 198 to 200 °C. For `CC(=NNC(=O)C(CC(C)C)NC(=O)C(Cc1ccccc1)NC(=O)c1cncc(C(=O)NC(Cc2ccccc2)C(=O)NC(CC(C)C)C(=O)NN=C(C)c2ccc([N+](=O)[O-])cc2)c1)c1ccc([N+](=O)[O-])cc1` (stereo not drawn) (hydrate or solvate) [5e, N^3,N^5-Bis{1-[(4-methyl-1-(2-(1-(4-nitrophenyl)ethylidene)hydrazinyl)-1-oxopentan-2-yl)-amino]-1-oxo-3-phenylpropan-2-yl}pyridine-3,5-dicarboxamide], the melting point is 256 to 258 °C.
